Data on five compounds can be found in ChEMBL document CHEMBL3867439, “Affinity Crystallography: A New Approach to Extracting High-Affinity Enzyme Inhibitors from Natural Extracts” (J Nat Prod, 2016).

In general, Ki refers to a measure of affinity in units of concentration, obtained from inhibition or displacement.

For one test, the target named is T1, Cathepsin K (Homo sapiens, UniProt P43235).
T1 sequence (P43235 whole entry): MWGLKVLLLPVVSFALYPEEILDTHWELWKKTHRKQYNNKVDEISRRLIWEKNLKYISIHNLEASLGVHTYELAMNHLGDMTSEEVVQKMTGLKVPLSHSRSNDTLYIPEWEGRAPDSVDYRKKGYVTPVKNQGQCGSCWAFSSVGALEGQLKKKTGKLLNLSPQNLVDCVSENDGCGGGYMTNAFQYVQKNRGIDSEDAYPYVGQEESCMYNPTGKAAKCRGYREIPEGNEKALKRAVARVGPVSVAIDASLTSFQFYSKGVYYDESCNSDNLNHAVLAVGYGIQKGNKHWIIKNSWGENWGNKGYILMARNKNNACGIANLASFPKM
Briefly: Competitive inhibition of human recombinant cathepsin K using Z-FR-MCA fluorogenic substrate by Dixon plot analysis.
Regarding `CC(C)[C@H](NC(=O)[C@H](CCCNC(=N)N)NC(=O)N[C@@H](Cc1ccccc1)C(=O)O)C(=O)NC1=CN(C(=N)N)CCC1`, the Ki amounted to 393 nM.

On to `CC(C)[C@H](NC(=O)[C@H](CCCNC(=N)N)NC(=O)N[C@@H](Cc1ccccc1)C(=O)O)C(=O)NC1CCCN(C(=N)N)C1=O` (stereo partly specified), for which the Ki is 163 nM. The same measure, in the same setting: the figure for `CC(C)[C@H](NC(=O)[C@H](CCCNC(=N)N)NC(=O)N[C@@H](Cc1ccccc1)C(=O)O)C(=O)NC1CCCN(C(=N)N)C1O` (stereo in doubt; form 1) is 105 nM; for `CC(C)[C@H](NC(=O)[C@H](CCCNC(=N)N)NC(=O)N[C@@H](Cc1ccccc1)C(=O)O)C(=O)NC1CCCN(C(=N)N)C1O` (stereo in doubt; form 2) it is 69 nM.

In another test the target is T1, Cathepsin K. Briefly: Competitive inhibition of human recombinant cathepsin K using Z-FR-MCA fluorogenic substrate by Handerson plot analysis.
Regarding `CC(C)[C@H](NC(=O)[C@H](CO)NC(=O)NCCCCNC(=N)N)C(=O)N[C@H]1CCCN(C(=N)N)C1O` (stereo partly specified), the Ki is 11 nM.

For the compound `CC(C)[C@H](NC(=O)[C@H](CCCNC(=N)N)NC(=O)N[C@@H](Cc1ccccc1)C(=O)O)C(=O)NC1CCCN(C(=N)N)C1O` (stereo in doubt; form 2), the Ki turned out to be 41 nM.
